Earlier results as cited in PubChem BioAssay AID1259409 (Chemical Carcinogenesis Research Information System (CCRIS), 2018).

Tested on: rodent chemically induced tumor inhibition, incidence and multiplicity
Assay: CCRIS tumor inhibitor studies
Conditions: for outcome: Carcinogen: N-methyl-N-nitrosourea (684-93-5), study duration 4 wks, Route [Inhibitor]: Oral, Species: Rat, Strain/Sex: F344/DuCrj/Male, Dose [Carcinogen]: 2 mg/rat, 3 x a wk for 4 wks

## CCCOC(=O)c1cc(O)c(O)c(O)c1
Carcinogen: 1,2-DIMETHYLHYDRAZINE, 540-73-8, Dose [Inhibitor]: 0, 1% IN DIET BEGINNING 1 WK POST LAST CARCINOGEN DOSE AND CONTINUING FOR 36 WK (STUDY DURATION: 40 WK), Route [Inhibitor]: ORAL, Species: RAT, Strain/Sex: F344/MALE, Target Tissue: Type of Lesion: COLON: ADENOMA, Dose [Carcinogen]: 20 MG/KG 1/WK FOR 4 WK, Promoter: NONE USED
  tumour outcome (control, treated, inhibition, significance): 1/20 (5%), 5/20 (25%), -400%, not calculated
Carcinogen: 1,2-DIMETHYLHYDRAZINE, 540-73-8, Dose [Inhibitor]: 0, 1% IN DIET BEGINNING 1 WK POST LAST CARCINOGEN DOSE AND CONTINUING FOR 36 WK (STUDY DURATION: 40 WK), Route [Inhibitor]: ORAL, Species: RAT, Strain/Sex: F344/MALE, Target Tissue: Type of Lesion: COLON: CARCINOMA, Dose [Carcinogen]: 20 MG/KG 1/WK FOR 4 WK, Promoter: NONE USED
  tumour outcome (control, treated, inhibition, significance): 6/20 (30%), 6/20 (30%), 0%
Carcinogen: 7,12-DIMETHYLBENZ(A)ANTHRACENE, 57-97-6, Dose [Inhibitor]: 0.3% IN HIGH SATURATED FAT DIET (STUDY DURATION: 32 WK), Route [Inhibitor]: ORAL, Species: RAT, Strain/Sex: SPRAGUE-DAWLEY/FEMALE, Target Tissue: Type of Lesion: MAMMARY GLAND: PARENCHYMAL CARCINOMA, Dose [Carcinogen]: 10 MG IN 1 ML CORN OIL ONCE AT 50 D OF AGE, Promoter: NONE USED
  tumour outcome (control, treated, inhibition, significance): 20/30 (67%), 8/30 (27%), 60%, not calculated
Carcinogen: 7,12-DIMETHYLBENZ[A]ANTHRACENE, 57-97-6, Dose [Inhibitor]: 0, 20 UMOL IN 0.4 ML ACETONE 20 MIN PRIOR TO EACH PROMOTER DOSE (STUDY DURATION: 47 WK), Route [Inhibitor]: DERMAL, Species: MOUSE, Strain/Sex: CF-1/FEMALE, Target Tissue: Type of Lesion: SKIN: CARCINOMA, Dose [Carcinogen]: 100 NMOL IN 0.2 ML ACETONE ONCE
  tumour outcome (control, treated, inhibition, significance): 67%, 8%, 88%, not calculated
Carcinogen: 7,12-DIMETHYLBENZ[A]ANTHRACENE, 57-97-6, Dose [Inhibitor]: 0, 20 UMOL IN 0.4 ML ACETONE 20 MIN PRIOR TO EACH PROMOTER DOSE (STUDY DURATION: 47 WK), Route [Inhibitor]: DERMAL, Species: MOUSE, Strain/Sex: CF-1/FEMALE, Target Tissue: Type of Lesion: SKIN: PAPILLOMA, Dose [Carcinogen]: 100 NMOL IN 0.2 ML ACETONE ONCE
  tumour outcome (control, treated, inhibition, significance): 94%, 66%, 30%, not calculated
Carcinogen: 7,12-DIMETHYLBENZ[A]ANTHRACENE, 57-97-6, Dose [Inhibitor]: 0.3% IN HIGH POLYUNSATURATED FAT DIET (STUDY DURATION: 32 WK), Route [Inhibitor]: ORAL, Species: RAT, Strain/Sex: SPRAGUE-DAWLEY/FEMALE, Target Tissue: Type of Lesion: MAMMARY GLAND: PARENCHYMAL CARCINOMA, Dose [Carcinogen]: 10 MG IN 1 ML CORN OIL ONCE AT 50 D OF AGE, 1X, Promoter: NONE USED
  tumour outcome (control, treated, inhibition, significance): 30/30 (100%), 23/30 (77%), 23%, not calculated
Carcinogen: 7,12-DIMETHYLBENZ[A]ANTHRACENE, 57-97-6, Dose [Inhibitor]: 0.3% IN HIGH POLYUNSATURATED FAT DIET DAILY STARTING 29 D BEFORE CARCINOGEN TREATMENT AND CONTINUING FOR THE DURATION OF, Route [Inhibitor]: ORAL, Species: RAT, Strain/Sex: SPRAGUE-DAWLEY/FEMALE, Target Tissue: Type of Lesion: MAMMARY GLAND: ADENOCARCINOMA, Dose [Carcinogen]: 10 MG IN 1 ML STRIPPED CORN OIL ONCE AT AGE 50 D, Promoter: NONE USED
  tumour outcome (control, treated, inhibition, significance): 100%, 70%, 30%, not calculated
Carcinogen: 7,12-DIMETHYLBENZ[A]ANTHRACENE, 57-97-6, Dose [Inhibitor]: 0.3% IN HIGH SATURATED FAT DIET DAILY STARTING 29 D BEFORE CARCINOGEN TREATMENT AND CONTINUING FOR THE DURATION OF THE S, Route [Inhibitor]: ORAL, Species: RAT, Strain/Sex: SPRAGUE-DAWLEY/FEMALE, Target Tissue: Type of Lesion: MAMMARY GLAND: ADENOCARCINOMA, Dose [Carcinogen]: 10 MG IN 1 ML STRIPPED CORN OIL ONCE AT AGE 50 D, Promoter: NONE USED
  tumour outcome (control, treated, inhibition, significance): 65%, 35%, 46%, not calculated
Carcinogen: 7,12-DIMETHYLBENZ[A]ANTHRACENE, 57-97-6, Dose [Inhibitor]: 0.3% IN LOW FAT DIET (STUDY DURATION: 32 WK), Route [Inhibitor]: ORAL, Species: RAT, Strain/Sex: SPRAGUE-DAWLEY/FEMALE, Target Tissue: Type of Lesion: MAMMARY GLAND: PARENCHYMAL CARCINOMA, Dose [Carcinogen]: 10 MG IN 1 ML CORN OIL ONCE AT 50 D OF AGE, Promoter: NONE USED
  tumour outcome (control, treated, inhibition, significance): 7/30 (23%), 4/30 (13%), 43%, not calculated
Carcinogen: 7,12-DIMETHYLBENZ[A]ANTHRACENE, 57-97-6, Dose [Inhibitor]: 0.3% IN LOW FAT DIET DAILY STARTING 29 D BEFORE CARCINOGEN TREATMENT AND CONTINUING FOR THE DURATION OF THE STUDY (STUDY, Route [Inhibitor]: ORAL, Species: RAT, Strain/Sex: SPRAGUE-DAWLEY/FEMALE, Target Tissue: Type of Lesion: MAMMARY GLAND: ADENOCARCINOMA, Dose [Carcinogen]: 10 MG IN 1 ML STRIPPED CORN OIL ONCE AT AGE 50 D, Promoter: NONE USED
  tumour outcome (control, treated, inhibition, significance): 35%, 15%, 57%, not calculated
Carcinogen: 7,12-DIMETHYLBENZ[A]ANTHRACENE, 57-97-6, Dose [Inhibitor]: 1.0% IN POWDERED DIET BEGINNING 1 WK POST CARCINOGEN DOSE FOR 51 WK (STUDY DURATION: 52 WK), Route [Inhibitor]: ORAL, Species: RAT, Strain/Sex: SPRAGUE-DAWLEY/FEMALE, Target Tissue: Type of Lesion: EAR DUCT: BENIGN TUMOR, Dose [Carcinogen]: 2.5 MG/100 G BW IN 0.5 ML SESAME OIL ONCE, Promoter: NONE USED
  tumour outcome (control, treated, inhibition, significance): 7/19 (37%), 3/20 (15%), 59%, not calculated
Carcinogen: 7,12-DIMETHYLBENZ[A]ANTHRACENE, 57-97-6, Dose [Inhibitor]: 1.0% IN POWDERED DIET BEGINNING 1 WK POST CARCINOGEN DOSE FOR 51 WK (STUDY DURATION: 52 WK), Route [Inhibitor]: ORAL, Species: RAT, Strain/Sex: SPRAGUE-DAWLEY/FEMALE, Target Tissue: Type of Lesion: MAMMARY GLAND: CARCINOMA, Dose [Carcinogen]: 2.5 MG/100 G BW IN 0.5 ML SESAME OIL ONCE, Promoter: NONE USED
  tumour outcome (control, treated, inhibition, significance): 6/19 (32%), 1/20 (5%), 84%, p<0.05
Carcinogen: 7,12-DIMETHYLBENZ[A]ANTHRACENE, 57-97-6, Dose [Inhibitor]: 1.0% IN POWDERED DIET BEGINNING 1 WK POST CARCINOGEN DOSE FOR 51 WK (STUDY DURATION: 52 WK), Route [Inhibitor]: ORAL, Species: RAT, Strain/Sex: SPRAGUE-DAWLEY/FEMALE, Target Tissue: Type of Lesion: MAMMARY GLAND: FIBROADENOMA, Dose [Carcinogen]: 2.5 MG/100 G BW IN 0.5 ML SESAME OIL ONCE, Promoter: NONE USED
  tumour outcome (control, treated, inhibition, significance): 15/19 (79%), 4/20 (20%), 75%, p<0.001

## CC(C)(C)c1cc(COCc2cc(C(C)(C)C)c(O)c(C(C)(C)C)c2)cc(C(C)(C)C)c1O
Carcinogen: BENZO[A]PYRENE, 50-32-8, Dose [Inhibitor]: 0.03 MMOL/G OF DIET DAILY STARTING 7 D BEFORE AND CONTINUING THROUGH 3 D AFTER CARCINOGEN TREATMENT FOLLOWED BY OBSERVAT, Route [Inhibitor]: ORAL, Species: MOUSE, Strain/Sex: ICR/FEMALE, Target Tissue: Type of Lesion: FORESTOMACH: NEOPLASM, Dose [Carcinogen]: 1 MG IN 0.2 ML CORN OIL 2/WK FOR 4 WK, Promoter: NONE USED
  tumour outcome (control, treated, inhibition, significance): 94%, 95%, -1%, not significant

## C[Si](C)(C)c1cc(C(=O)Nc2ccc(C(=O)O)cc2)cc([Si](C)(C)C)c1
Dose [Inhibitor]: 0, 0.8 mg/kg by gavage 5 d/wk for 1 wk, Dose [Inhibitor]: 0, 0.8 mg/kg by gavage 5 d/wk for 1 wk
  outcome: colon: tumors
Dose [Inhibitor]: 0, 0.8 mg/kg by gavage 5 d/wk for 4 wks, Dose [Inhibitor]: 0, 0.8 mg/kg by gavage 5 d/wk for 4 wks
  outcome: colon: tumors
Dose [Inhibitor]: 0, 8 mg/kg by gavage 5 d/wk for 1 wk, Dose [Inhibitor]: 0, 8 mg/kg by gavage 5 d/wk for 1 wk
  outcome: colon: tumors
Dose [Inhibitor]: 0, 8 mg/kg by gavage 5 d/wk for 4 wks, Dose [Inhibitor]: 0, 8 mg/kg by gavage 5 d/wk for 4 wks
  outcome: colon: tumors

## CC(N)C(=O)NCC(=O)NC1CSSCC(C(=O)O)NC(=O)C(CO)NC(=O)C(C(C)O)NC(=O)C(Cc2ccccc2)NC(=O)C(C(C)O)NC(=O)C(CCCCN)NC(=O)C(Cc2c[nH]c3ccccc23)NC(=O)C(Cc2ccccc2)NC(=O)C(Cc2ccccc2)NC(=O)C(CC(N)=O)NC(=O)C(CCCCN)NC1=O (centres undefined)
Carcinogen: N-NITROSOMORPHOLINE, 59-89-2, Dose [Inhibitor]: 0, 200 UG/KG BW 1/2 D FOR DURATION OF STUDY (STUDY DURATION: 16 WK), Route [Inhibitor]: SUBCUTANEOUS, Species: RAT, Strain/Sex: SPRAGUE-DAWLEY/MALE, Target Tissue: Type of Lesion: LIVER: HEPATOCELLULAR CARCINOMA, Dose [Carcinogen]: 175 MG/L DRINKING WATER FOR 8 WK, Promoter: NONE USED
  tumour outcome (control, treated, inhibition, significance): 8/25 (32%), 4/25 (16%), 50%, not significant
